The source of these data is article PMC9995496, “A screen for MeCP2-TBL1 interaction inhibitors using a luminescence-based assay” (Scientific Reports, 2023).

For the first assay, the system named is PRKACA-PRKAR2A interaction (SmBiT-PRKACA / LgBiT-PRKAR2A), protein kinase A. On the set-up: NanoLuc complementation counter-screen in cell extract, PRKACA with PRKAR2A, loss of luminescence, detects NanoLuc interference. The following applies: counter-screen for NanoLuc interference, 0.5 h, 20 µM, inhibitor, Inh (PKA). Background: Counterscreens check selectivity or assay interference.
On to `C[C@H]1c2cccc(O)c2C(=O)C2=C(O)[C@]3(O)C(=O)C(C(N)=O)=C(O)[C@@H](N(C)C)[C@@H]3[C@@H](O)[C@@H]21` [UM0141681:01, Doxycycline hyclate], for which the “Inh (PKA)” value is given as 1.233%.

Staying with this assay, now noted: counter-screen for NanoLuc interference; 0.5 h, 20 µM; inhibitor.
`CNC(=O)[C@H](Cc1c[nH]c2ccccc12)NC(=O)[C@@H](CC(=O)NO)CC(C)C` [UM0141679:01, GM 6001]: the “Inh (PKA)” value is listed as -1.568%.

Take `CCCC(C)NC(=O)c1ccc(Cl)c(Cl)c1` (stereo not shown) [UM0141680:01, NSC 405020]: the “Inh (PKA)” value is reported as 15.79%.

Take `C=CCNC1=C2C[C@@H](C)C[C@H](OC)[C@H](O)[C@@H](C)/C=C(\C)[C@H](OC(N)=O)[C@@H](OC)/C=C\C=C(/C)C(=O)NC(=CC1=O)C2=O` [UM0141682:01, 17-AAG (KOS953)]: the “Inh (PKA)” value is reported as 8.06%.

Consider `CC(C)c1cc(C(=O)N2Cc3ccc(CN4CCN(C)CC4)cc3C2)c(O)cc1O` [UM0141683:01, AT13387], for which the “Inh (PKA)” value was determined as 8.919%.

For `CCNC(=O)c1noc(-c2cc(C(C)C)c(O)cc2O)c1-c1ccc(CN2CCOCC2)cc1` [UM0141684:01, AUY922 (NVP-AUY922)], the “Inh (PKA)” value turned out to be 15.87%.

Turning to `COc1c(C)cnc(Cn2cnc3c(Cl)nc(N)nc32)c1C` [UM0141685:01, BIIB021], the “Inh (PKA)” value is 2.432%.

For `COC1=C2C[C@@H](C)C[C@H](OC)[C@H](O)[C@@H](C)/C=C(\C)[C@H](OC(N)=O)[C@@H](OC)/C=C\C=C(/C)C(=O)NC(=CC1=O)C2=O` [UM0141686:01, Geldanamycin], the “Inh (PKA)” value worked out at 5.017%.

`CC1(C)CC(=O)c2c(C(F)(F)F)nn(-c3ccc(C(N)=O)c(N[C@H]4CC[C@H](OC(=O)CN)CC4)c3)c2C1` [UM0141688:01, PF-04929113 (SNX-5422)]: the “Inh (PKA)” value worked out at 8.876%.

On to `CC1(C)CC(=O)c2c(C(F)(F)F)nn(-c3ccc(C(N)=O)c(N[C@H]4CC[C@H](O)CC4)c3)c2C1` [UM0141689:01, SNX-2112], for which the “Inh (PKA)” value was found to be 12.62%.

With `Cn1c(N2CCCCS2(=O)=O)nc(C(=O)NCc2ccc(F)cc2)c(O)c1=O` [UM0141690:01, BMS-707035], the “Inh (PKA)” value was 4.266%.

For `COc1cc2c(cc1Cc1cccc(Cl)c1F)c(=O)c(C(=O)O)cn2[C@H](CO)C(C)C` [UM0141691:01, Elvitegravir (GS-9137)], the “Inh (PKA)” value stood at 4.883%.

`CCN1C[C@H](C)n2c(c(O)c3c(=O)n(Cc4ccc(F)c(Cl)c4)nc(C(=O)NC)c32)C1=O` [UM0141692:01, MK-2048]: the “Inh (PKA)” value was found to be 3.571%.

In the case of `Cc1nnc(C(=O)NC(C)(C)c2nc(C(=O)NCc3ccc(F)cc3)c(O)c(=O)n2C)o1` [UM0141693:01, Raltegravir (MK-0518)], the “Inh (PKA)” value came out at 1.324%.

On to `C[C@@H]1CCO[C@H]2Cn3cc(C(=O)NCc4ccc(F)cc4F)c(=O)c(O)c3C(=O)N12` [UM0141694:01, S/GSK1349572], for which the “Inh (PKA)” value is 3.965%.

Take `O=C(CCCCCCNC(=O)c1cnc(N(c2ccccc2)c2ccccc2)nc1)NO` [UM0141695:01, Rocilinostat (ACY-1215)]: the “Inh (PKA)” value is recorded as 1.949%.

As for `Nc1ccccc1NC(=O)c1ccc(CNc2nccc(-c3cccnc3)n2)cc1` [UM0141696:01, Mocetinostat (MGCD0103, MG0103)], the “Inh (PKA)” value is 5.263%.

On to `Cn1cc(CNCC2CCN(c3ncc(C(=O)NO)cn3)CC2)c2ccccc21` [UM0141697:01, JNJ-26481585], for which the “Inh (PKA)” value is recorded as 2.58%.

For `COc1ccc(Cn2ccc3ccc(C(=O)NO)cc32)cc1` [UM0141698:01, PCI-34051], the “Inh (PKA)” value came to 4.873%.

As for `C#Cc1cccc(Nc2ncnc3cc(OC)c(OCCCCCCC(=O)NO)cc23)c1` [UM0141699:01, CUDC-101], the “Inh (PKA)” value was found to be 11.72%.

For `CCN(CC)Cc1ccc2cc(COC(=O)Nc3ccc(C(=O)NO)cc3)ccc2c1` [UM0141700:01, ITF2357 (Givinostat)], the “Inh (PKA)” value turned out to be 1.847%.

With `Cn1cc(/C=C/C(=O)c2cccc(F)c2)cc1/C=C/C(=O)NO` [UM0141701:01, MC1568], the “Inh (PKA)” value is recorded as 48.72%.
